MIC data for 25 molecules are collected here from EP0750618B1, “OXAZOLIDINONE DERIVATIVES AND PHARMACEUTICAL COMPOSITIONS CONTAINING THEM” (priority 1994, dated 1995).

Common to all, as to test: MIC test, standard agar dilution method
Assay [1] concerns Staphylococcus epidermidis (UC 12084). Type of assay: cell-based. Particulars: UC12084, incubated overnight at 35°C, read-out: Minimum Inhibitory Concentrations (MIC) S. enidermidis.
Another assay concerns Staphylococcus aureus.
In assay [2] the test system is Streptococcus pyogenes (UC 152). To be noted: UC152, read-out: Minimum Inhibitory Concentrations (MIC) S. pyogenes.
Setting [3] is: UC9213, read-out: Minimum Inhibitory Concentrations (MIC) S. aureus.

In brackets after ≈: the same amount, converted by molar mass. Read-outs that look alike come from different tables or passages of the source.

Take `CC(=O)NC[C@H]1CN(c2ccc(N3CCC(Nc4nccs4)CC3)c(F)c2)C(=O)O1` [Compound No. 63, (S)-N-(3-{3-fluoro-4-[4-(thiazol-2-ylamino)-piperidin-1-yl]-phenyl}-2-oxo-oxazolidin-5-ylmethyl)-acetamide]: the MIC was 2 µg/mL (≈ 4.61 µM) in assay [1], 16 µg/mL (≈ 36.9 µM) in the assay with Staphylococcus aureus (setting [3]) and 2 µg/mL (≈ 4.61 µM) in assay [2].
As to `CC(=O)NC[C@H]1CN(c2ccc(N3CCC(=NNCCO)CC3)c(F)c2)C(=O)O1` [compound 41, (S)-N-[3-(3-fluoro-4-{4-[(2-hydroxy-ethyl)-hydrazono]-piperidin-1-yl}-phenyl)-2-oxo-oxazolidin-5-ylmethyl]-acetamide], the values for the MIC (in assay [1]; in the assay with Staphylococcus aureus (setting [3]); in assay [2]) were 0.5 µg/mL (≈ 1.23 µM), 4 µg/mL (≈ 9.82 µM) and 1 µg/mL (≈ 2.45 µM), respectively.
Consider `CC(=O)NC[C@H]1CN(c2ccc(N3CCC(NC(=O)CO)CC3)c(F)c2)C(=O)O1` [compound 10, (S)-N-(1-{4-[5-(acetylamino-methyl)-2-oxo-oxazolidin-3-yl]-2-fluoro-phenyl}-piperidin-4-yl)-2-hydroxy-acetamide], for which the figures for the MIC (in assay [1]; in the assay on Staphylococcus aureus (setting [3]); in assay [2]) were 2 µg/mL (≈ 4.9 µM), 16 µg/mL (≈ 39.2 µM) and 2 µg/mL (≈ 4.9 µM), respectively.
As to `CC(=O)NC[C@H]1CN(c2ccc(N3CCC(=NN4CCN(CCO)CC4)CC3)c(F)c2)C(=O)O1` [compound 49, (S)-N-[3-(3-fluoro-4-{4-[4-(2-hydroxy-ethyl)-piperazin-1-ylimino]-piperidin-1-yl)-phenyl)-2-oxo-oxazolidin-5-ylmethyl]-acetamide], the MIC in assay [1] stood at 0.5 µg/mL (≈ 1.05 µM); with Staphylococcus aureus (setting [3]), 4 µg/mL (≈ 8.39 µM); in assay [2], 1 µg/mL (≈ 2.1 µM).
As for `CC(=O)NC[C@H]1CN(c2ccc(N3CCC(=NOCCO)CC3)c(F)c2)C(=O)O1` [compound 48, (S)-N-(3-{3-fluoro-4-[4-(2-hydroxy-ethoxyimino)-piperidin-1-yl]-phenyl}-2-oxo-oxazolidin-5-ylmethyl)-acetamide], the MIC turned out to be 1 µg/mL (≈ 2.45 µM) in assay [1], 8 µg/mL (≈ 19.6 µM) in the assay on Staphylococcus aureus (setting [3]) and 2 µg/mL (≈ 4.9 µM) in assay [2].
As to `CC(=O)NC[C@H]1CN(c2ccc(N3CCC(N)CC3)c(F)c2)C(=O)O1` [Compound No. 6, (S)-N-{3-[4-(4-amino-piperidin-1-yl)-3-fluoro-phenyl]-2-oxo-oxazolidin-5-ylmethyl}-acetamide], the results for the MIC (in assay [1]; in the assay with Staphylococcus aureus (setting [3]); in assay [2]) were 32 µg/mL (≈ 91.3 µM), over 64 µg/mL and 1 µg/mL (≈ 2.85 µM), respectively.
The corresponding values for `CONC1CCN(c2ccc(N3C[C@H](CNC(C)=O)OC3=O)cc2F)CC1` [Compound No. 59, (S)-N-{3-[3-fluoro-4-(4-methoxyamino-piperidin-1-yl)-phenyl]-2-oxo-oxazolidin-5-ylmethyl}-acetamide] are 2 µg/mL (≈ 5.26 µM), 4 µg/mL (≈ 10.5 µM) and 4 µg/mL (≈ 10.5 µM).
`COC(=O)[C@H]1CN(c2ccc(N3CC(CNC(C)=O)OC3=O)cc2F)CCC1=O` (stereo partly drawn) [Compound No. 34, (S)-1-{4-[5-(acetylamino-methyl)-2-oxo-oxazolidin-3-yl]-2-fluoro-phenyl}-4-oxo-piperidin-3-carboxylic acid methyl ester]: the MIC came out at 4 µg/mL (≈ 9.82 µM) in assay [1], 16 µg/mL (≈ 39.3 µM) with Staphylococcus aureus (setting [3]) and 4 µg/mL (≈ 9.82 µM) in assay [2].
Turning to `CCOC(=O)CC(=O)NN=C1CCN(c2ccc(N3C[C@H](CNC(C)=O)OC3=O)cc2F)CC1` [compound 56, (S)-(1-{4-[5-(acetylamino-methyl)-2-oxo-oxazolidin-3-yl]-2-fluorophenyl}-piperidin-4-ylidenehydrazinocarbonyl)-acetic acid ethyl ester], the MIC is 1 µg/mL (≈ 2.09 µM) in assay [1], 4 µg/mL (≈ 8.38 µM) in the assay on Staphylococcus aureus (setting [3]) and 2 µg/mL (≈ 4.19 µM) in assay [2].
Take `CC(=O)NC[C@H]1CN(c2ccc(N3CCC(=NOC(=O)COC(C)=O)CC3)c(F)c2)C(=O)O1` [compound 43, (S)-N-{3-[3-fluoro-4-(4-acetoxyacetoxyimino-piperidin-1-yl)-phenyl]-2-oxo-oxazolidin-5-ylmethyl}-acetamide]: the figures for the MIC (in assay [1]; with Staphylococcus aureus (setting [3]); in assay [2]) were 0.5 µg/mL (≈ 1.08 µM), 4 µg/mL (≈ 8.61 µM) and 1 µg/mL (≈ 2.15 µM), respectively.
On to `CC(=O)NC[C@H]1CN(c2ccc(N3CCC(C4(C)OCCO4)CC3)c(F)c2)C(=O)O1` [Compound No. 35, (S)-N-(3-{3-fluoro-4-[4-(2-methyl-[1,3]dioxolan-2-yl)-piperidin-1-yl]-phenyl}-2-oxo-oxazolidin-5-ylmethyl)-acetamide], for which the MIC in assay [1] was 2 µg/mL (≈ 4.75 µM); in the assay with Staphylococcus aureus (setting [3]) it was 8 µg/mL (≈ 19 µM); in assay [2] it was 2 µg/mL (≈ 4.75 µM).
For `CC(=O)NC[C@H]1CN(c2ccc(N3CCC(=NN4CCOCC4)CC3)c(F)c2)C(=O)O1` [compound 40, (S)-N-(3-{3-fluoro-4-[4-(morpholin-4-ylimino)-piperidin-1-yl]-phenyl}-2-oxo-oxazolidin-5-ylmethyl)-acetamide], the MIC in assay [1] amounted to 0.5 µg/mL (≈ 1.15 µM); in the assay with Staphylococcus aureus (setting [3]), 4 µg/mL (≈ 9.23 µM); in assay [2], 2 µg/mL (≈ 4.61 µM).
For the molecule `COCOC1CCN(c2ccc(N3C[C@H](CNC(C)=O)OC3=O)cc2F)CC1` [compound 27, (S)-N-{3-[3-fluoro-4-(4-methoxymethoxy-piperidin-1-yl)-phenyl]-2-oxo-oxazolidin-5-ylmethyl}-acetamide], the MIC in assay [1] turned out to be 2 µg/mL (≈ 5.06 µM); in the assay with Staphylococcus aureus (setting [3]) it was 8 µg/mL (≈ 20.2 µM); in assay [2], 8 µg/mL (≈ 20.2 µM).
For `CC(=O)NC[C@H]1CN(c2ccc(N3CCC(CO)CC3)c(F)c2)C(=O)O1` [Compound No. 4, (S)-N-{3-[3-fluoro-4-(4-hydroxymethyl-piperidin-1-yl)-phenyl]-2-oxo-oxazolidin-5-ylmethyl}-acetamide], the figures for the MIC (in assay [1]; with Staphylococcus aureus (setting [3]); in assay [2]) were 2 µg/mL (≈ 5.47 µM), 8 µg/mL (≈ 21.9 µM) and 2 µg/mL (≈ 5.47 µM), respectively.
Consider `COCOCCON=C1CCN(c2ccc(N3C[C@H](CNC(C)=O)OC3=O)cc2F)CC1` [compound 53, (S)-N-(3-{3-fluoro-4-[4-(2-methoxymethoxy-ethoxyimino)-piperidin-1-yl]-phenyl}-2-oxo-oxazolidin-5-ylmethyl)-acetamide], for which the MIC in assay [1] was determined as 2 µg/mL (≈ 4.42 µM); in the assay with Staphylococcus aureus (setting [3]) it was 16 µg/mL (≈ 35.4 µM); in assay [2] it was 4 µg/mL (≈ 8.84 µM).
For the molecule `CC(=O)NC[C@H]1CN(c2ccc(N3CCCCC3)c(F)c2)C(=O)O1` [Compound No. 2, (S)-N-[3-(3-fluoro-4-piperidin-1-yl-phenyl)-2-oxo-oxazolidin-5-ylmethyl]-acetamide], the MIC amounted to 1 µg/mL (≈ 2.98 µM) in assay [1]; 8 µg/mL (≈ 23.9 µM) with Staphylococcus aureus (UC9218, read-out: Minimum Inhibitory Concentrations (MIC) S. aureus); 4 µg/mL (≈ 11.9 µM) in assay [2].
For `COCCNC1CCN(c2ccc(N3C[C@H](CNC(C)=O)OC3=O)cc2F)CC1` [compound 64, (S)-N-(3-{3-fluoro-4-[4-(2-methoxy-ethylamino)-piperidin-1-yl]-phenyl}-2-oxo-oxazolidin-5-ylmethyl)-acetamide], the MIC stood at 2 µg/mL (≈ 4.9 µM) in assay [1], 32 µg/mL (≈ 78.3 µM) in the assay on Staphylococcus aureus (setting [3]) and 1 µg/mL (≈ 2.45 µM) in assay [2].
On to `CC(=O)NC[C@H]1CN(c2ccc(N3CCC(NC(C)=O)CC3)c(F)c2)C(=O)O1` [compound 9, (S)-N-{3-[4-(4-acetylamino-piperidin-1-yl)-3-fluoro-phenyl]-2-oxo-oxazolidin-5-ylmethyl}-acetamide], for which the values for the MIC (in assay [1]; with Staphylococcus aureus (setting [3]); in assay [2]) were 2 µg/mL (≈ 5.1 µM), 16 µg/mL (≈ 40.8 µM) and 4 µg/mL (≈ 10.2 µM), respectively.
The corresponding values for `CC(=O)NC[C@H]1CN(c2ccc(N3CCC(C(C)=O)CC3)c(F)c2)C(=O)O1` [compound 36, (S)-N-{3-[4-(4-acetyl-piperidin-1-yl)-3-fluoro-phenyl]-2-oxo-oxazolidin-5-ylmethyl}-acetamide] are 1 µg/mL (≈ 2.65 µM), 4 µg/mL (≈ 10.6 µM) and 2 µg/mL (≈ 5.3 µM).
`CC(=O)NC[C@H]1CN(c2ccc(N3CCC(C4(CO)OCCO4)CC3)c(F)c2)C(=O)O1` [Compound No. 44, (S)-N-(3-{3-fluoro-4-[4-(2-hydroxymethyl-[1,3]dioxolan-2-yl)-piperidin-1-yl]-phenyl}-2-oxo-oxazolidin-5-ylmethyl)-acetamide]: the figures for the MIC (in assay [1]; in the assay on Staphylococcus aureus (setting [3]); in assay [2]) were 2 µg/mL (≈ 4.57 µM), 16 µg/mL (≈ 36.6 µM) and 24 µg/mL (≈ 54.9 µM), respectively.
`COC(=O)CON=C1CCN(c2ccc(N3C[C@H](CNC(C)=O)OC3=O)cc2F)CC1` [compound 47, (S)-(1-{4-[5-(acetylamino-methyl)-2-oxo-oxazolidin-3-yl]-2-fluoro-phenyl}-piperidin-4-ylideneaminooxy)-acetic acid methyl ester]: the MIC in assay [1] came out at 1 µg/mL (≈ 2.29 µM); in the assay with Staphylococcus aureus (setting [3]) it was 8 µg/mL (≈ 18.3 µM); in assay [2], 2 µg/mL (≈ 4.58 µM).
Regarding `CN[C@H](CC(C)C)C(=O)N[C@H]1C(=O)N[C@@H](CC(N)=O)C(=O)N[C@H]2C(=O)N[C@H]3C(=O)N[C@H](C(=O)N[C@H](C(=O)O)c4cc(O)cc(O)c4-c4cc3ccc4O)[C@H](O)c3ccc(c(Cl)c3)Oc3cc2cc(c3O[C@@H]2O[C@H](CO)[C@@H](O)[C@H](O)[C@H]2O[C@H]2C[C@](C)(N)[C@H](O)[C@H](C)O2)Oc2ccc(cc2Cl)[C@H]1O` [Vancomycin, reference compound], the MIC in assay [1] stood at 2 µg/mL (≈ 1.38 µM); in the assay on Staphylococcus aureus (setting [3]), 1 µg/mL (≈ 0.69 µM); in assay [2], 0.5 µg/mL (≈ 0.345 µM).
The corresponding values for `CC(=O)NC[C@H]1CN(c2ccc(N3CCC(=Nn4cnnc4)CC3)c(F)c2)C(=O)O1` [compound 51, (S)-N-(3-{3-fluoro-4-[4-([1,2,4]triazol-4-ylimino)-piperidin-1-yl]-phenyl}-2-oxo-oxazolidin-5-ylmethyl)-acetamide] are 1 µg/mL (≈ 2.41 µM), 4 µg/mL (≈ 9.63 µM) and 2 µg/mL (≈ 4.81 µM).
For `CC(=O)NC[C@H]1CN(c2ccc(N3CCC4(CC3)OCC(CO)O4)c(F)c2)C(=O)O1` (stereo partly drawn) [Compound No. 52, (S)-N-{3-[3-fluoro-4-(2-hydroxymethyl-1,4-dioxa-8-aza-spiro[4.5]dec-8-yl)-phenyl]-2-oxo-oxazolidin-5-ylmethyl}-acetamide], the MIC in assay [1] was determined as 2 µg/mL (≈ 4.72 µM); with Staphylococcus aureus (setting [3]), 16 µg/mL (≈ 37.8 µM); in assay [2] it was 4 µg/mL (≈ 9.45 µM).
On to `CC(=O)NC[C@H]1CN(c2ccc(N3CCC(NC(=O)OCOC(C)=O)CC3)c(F)c2)C(=O)O1` [compound 65, (S)-N-(3-{4-[4-(acetoxy-methoxy-carbonylamino)-piperidin-1-yl]-3-fluorophenyl}-2-oxo-oxazolidin-5-ylmethyl)-acetamide], for which the MIC in assay [1] worked out at 1 µg/mL (≈ 2.14 µM); in the assay on Staphylococcus aureus (setting [3]), 8 µg/mL (≈ 17.2 µM); in assay [2], 0.5 µg/mL (≈ 1.07 µM).
